Measured values taken from US20240270744A1 (Hoffmann-La Roche Inc., priority 2021, published 2024).

Columns and labels:
h-GABA-A α2β2γ1 = h-GABA-A α2β2γ1 (Homo sapiens (Human), UniProt P47869+Q8N1C3); assay: Two-electrode voltage clamp electrophysiology in Xenopus oocytes expressing GABAA receptors; type: cell-based; conditions: Table 2; for Efficacy (GABA) %: % modulation of GABA EC20 = 100*(Fold increase-1), compound at 30-fold Ki; for Fold increase h-GABA-A α2β2γ1 oocyte @ 30-fold Ki: GABA EC20, test compound at approx. 30-fold its Ki α2β2γ1, Xenopus oocytes, -80 mV
Experimental: Xenopus laevis oocytes at maturation stages V-VI were used for the expression of cloned mRNA encoding GABAA receptor subunits. Oocytes ready for RNA micro-injection were bought from Ecocyte, Castrop-Rauxel, Germany and stored in modified Barth's medium (composition in mM: NaCl 88, KCl 1, NaHCO3 2.4, HEPES 10, MgSO4 0.82, CaNO3 0.33, CaCl2 0.33, pH=7.5) at 20° C. until the experiment.
Oocytes were plated in 96-well plates for microinjection using the Roboinject automated instrument (MultiChannelSystems, Reutlingen, Germany). Approximately 50 nL of an aqueous solution containing the RNA transcripts for the subunits of the desired GABAA receptor subtype was injected into each oocyte. […] Oocytes were kept in modified Barth's medium (composition in mM: NaCl 88, KCl 1, NaHCO3 […], HEPES 10, MgSO4 0.82, CaNO3 0.33, CaCl2 0.33, pH=7.5) at 20° C. until the experiment.
Electrophysiological experiments were performed using the Roboocyte instrument (MultiChannelSystems, Reutlingen, Germany) on days 3 to 5 after the micro-injection of mRNA. During the experiment the oocytes were constantly superfused by a solution containing (in mM) NaCl 90, KCl 1, HEPES 5, MgCl2 1, CaCl2 1 (pH 7.4). Oocytes were impaled by two glass microelectrodes (resistance: […]) which were filled with a solution containing KCl 1M+K-acetate 1.5 M and voltage-clamped to −80 mV. The recordings were performed at room temperature using the Roboocyte two-electrode voltage clamp system (Multichannelsystem). After an initial equilibration period of 1.5 min GABA was added for 1.5 min at a concentration evoking approximately 20% of a maximal current response (EC20). After another rest interval of 2.5 min GABA was again added evoking a response of similar amplitude and shape. […] Current traces were recorded at a digitization rate of 10 Hz during and shortly before and after the GABA application.
Each compound and concentration was tested on at least 3 oocytes. Different oocytes were used for different compound concentrations.
For the analysis, the digitized current traces of the first and second GABA response were superimposed and, if necessary, rescaled to equal maximal amplitudes. The ratio between the two responses during the time interval of test compound application was calculated point by point. The extremum of the resulting “ratio trace” was taken as the efficacy (“Fold increase”) of the compound expressed as “% modulation of GABA EC20” (100*(Fold increase−1)).

[1] = target: human GABAA α1β2γ1 receptor (Homo sapiens (Human), UniProt P14867+Q8N1C3); assay: Radioligand binding assay, competition for [3H]RO7239181, γ1-containing GABAA subtypes; conditions: Table 1; [3H]RO7239181 displacement, membranes from HEK293F cells, mean of two determinations

SMILES	Efficacy (GABA) % (h-GABA-A α2β2γ1) [%]	Fold increase h-GABA-A α2β2γ1 oocyte @ 30-fold Ki (h-GABA-A α2β2γ1)	Ki [1] [nM]
C[C@@H]1N=C(c2c(F)cccc2F)c2c(cnc(C(F)(F)F)c2Cl)-n2nc(C(=O)NC[C@@H](C)O)nc21 [Example 16, (7S)-11-chloro-9-(2,6-difluorophenyl)-N-[(2R)-2-hydroxypropyl]-7-methyl-12-(trifluoromethyl)-2,3,5,8,13-pentazatricyclo[8.4.0.02,6]tetradeca-1(10),3,5,8,11,13-hexaene-4-carboxamide]	166	2.66	157
Cc1nnc2n1-c1cnc(C(F)(F)F)c(Cl)c1C(c1c(F)cccc1Cl)=N[C@H]2C [Example 17, (7S)-11-chloro-9-(2-chloro-6-fluoro-phenyl)-3,7-dimethyl-12-(trifluoromethyl)-2,4,5,8,13-pentazatricyclo[8.4.0.02,6]tetradeca-1(10),3,5,8,11,13-hexaene]	91	1.91	34.4
C[C@@H]1N=C(c2c(F)cccc2F)c2c(cnc(C(F)(F)F)c2Cl)-n2cc(C(=O)NCCO)nc21 [Example 19, (7S)-11-chloro-9-(2,6-difluorophenyl)-N-(2-hydroxyethyl)-7-methyl-12-(trifluoromethyl)-2,5,8,13-tetrazatricyclo[8.4.0.02,6]tetradeca-1(10),3,5,8,11,13-hexaene-4-carboxamide]	170	2.70	48.9
